Test results published in publication PMC4397719 (Pharmacogenomics and Personalized Medicine, 2015).

What was measured:
[1] = test system: CD-3e+ T-cells; assay: Flow cytometry viability; assay type: cell-based, mouse; conditions: 4 hours; for sensitivity of T-cells (viability) compared to other cell populations: 15 nM to 100 μM
[2] = test system: normal immune cells (splenocyte immune cell subpopulations); conditions: 15 nM to 100 μM, 4 hours

Structure (SMILES)	sensitivity of T-cells (viability) compared to other cell populations [1]	IC50 (viability) ([1]; T-cells, highest concentration of 100 μM, 36 strains)	toxicity to normal immune cells (viability) [2]
COc1cccc2c1C(=O)c1c(O)c3c(c(O)c1C2=O)C[C@@](O)(C(=O)CO)C[C@@H]3O[C@H]1C[C@H](N)[C@H](O)[C@H](C)O1 [doxorubicin]	least sensitive	few strains reaching the IC50 at the highest concentration of 100 μM	–
Cn1cnc2c(F)c(Nc3ccc(Br)cc3Cl)c(C(=O)NOCCO)cc21 [selumetinib]	less sensitive and less variable	–	less toxic to normal immune cells than the anthracycline agents
Cn1c(=O)n(-c2ccc(C(C)(C)C#N)cc2)c2c3cc(-c4cnc5ccccc5c4)ccc3ncc21 [BEZ-235]	less sensitive and less variable	–	less toxic to normal immune cells than the anthracycline agents
CC(=O)[C@]1(O)Cc2c(O)c3c(c(O)c2[C@@H](O[C@H]2C[C@H](N)[C@H](O)[C@H](C)O2)C1)C(=O)c1ccccc1C3=O [idarubicin]	less sensitive than B-cells	–	–
